Measurements reported in US20050153951A1, “Neurotrophic pyrrolidines and piperidines, and related compositions and methods” (priority 1999, published 2005).
Several values for one entry are separate records, joined by “and”; a condition that tells them apart may be missing. Identical values can stand only once.

What was measured:
[1] = system: Human M17 Neuroblastoma Cells; test: Neurite outgrowth assay, M17 neuroblastoma cells; assay type: cell-based; details: MAP-2 immunofluorescence; active if greater than mean DMSO-treated control on the same plate
Description: M17 human neuroblastoma cells are cultured in 1:1 ratio of EMEM and Hams's F12 with 1×NEM and 10% FBS. The culture media contains 1×PSN antibiotic and is exchanged every other day, and the cells are passed in log phase near confluence.
(§1) Cultures are incubated with normal horse serum (1:50; Vector Labs) for about 20 min, rinsed and then incubated with primary antibody, microtubule associated-protein 2 (anti-mouse MAP-2; 1:1000; Chemicon) for about 2 h at about RT. Following primary antibody, cultures are rinsed and incubated with fluorescein anti-mouse IgG (rat absorbed; 1:50; Vector Labs) for about 1 h. After fluorescein incubation, the cultures are rinsed and read in PBS on a fluorescent plate reader (excitation: 485 nm; emission: 530 nm). […] The response to test compound is reported as percent of DMSO-treated control.

[2] = system: Primary Rat Hippocampal Cells; test: Neurite outgrowth assay, primary rat hippocampal cells; assay type: cell-based; details: MAP-2 immunofluorescence; active if greater than mean DMSO-treated control on the same plate
Description: Hippocampal cells are dissected from the brains of embryonic day 18 rat pups and dissociated with trypsin (1 mg/mL) and trituration. Cells are seeded at 30,000 cells/well in 96-well plates filled with 100 μL MEM and 10% FBS. At 7 days in culture, cells are fixed with 4% paraformaldehyde and immuno-fluorescence is performed.
as §1

[3] = system: Dorsal Root Ganglion (DRG); test: Dorsal Root Ganglion (DRG) culture, neurite outgrowth; assay type: cell-based, rat; set-up: key: +: Positive results for each experiment; −: Negative results for each experiment; details: test compound 50-250 nM; neurite outgrowth examined days 1-5; positive if neurites of ≧1 diameter of the DRG; one symbol per experiment
Description: DRG are dissected from newborn or 1-day-old CD rats and placed into PBS on ice. After rinsing twice with sterile plating medium, DRG are transferred to empty wells of a 6-well plate coated with polyornithine/laminin (Becton Dickinson Labware) using #7 curved forceps. Three ml/well of plating medium are then added very gently, so as not to disturb the DRG. Plating medium is Leibovitz's L-15 medium (Gibco), plus 0.6% glucose, 33 mM KCl, 10% FCS, 10 mM Hepes and penicillin/streptomycin/glutamine. After overnight incubation at about 37° C. in 5% CO2, this medium is replaced with 3 mL/well of assay medium [Leibovitz's L-15 medium plus 0.6% glucose, 1% FCS, 1% N-2 supplement (Gibco), 10 μM ara-C, 10 mM Hepes, and penicillin/streptomycin/glutamine] containing either vehicle (DMSO, 1/200,000), positive control (24 ng/mL NGF) or test compound (50-250 nM). All media are prepared fresh daily. DRG are microscopically examined for neurite outgrowth on days 1-5.

[4] = system: PC12 cells and sensory ganglia; details: cultures of PC12 cells and sensory ganglia; Lyons et al. 1994; cited from earlier work
facial nerve = test: Rat facial nerve compression model; assay type: in vivo; details: p.o. about 20 mg/kg twice a day for 15 days; compared to vehicle and internal control; FIG. 1
Description: In this model, compressing the facial nerve causes paralysis of the whisker muscle on that side of the face. The untreated facial nerve on the other side functions as an internal control. […] The whisker movement recovery rate on the paralyzed side compared to the vehicle and internal control is shown in this FIGURE.
Long-Evans rats are anesthetized under ketamine (60 mg/kg)/xylazine (6 mg/kg). The facial nerve is exposed and mechanically compressed with forceps near the stylomastoid foramen unilaterally with the opposite, non-lesioned side serving as an internal control. […] Rats received test compound p.o. at about 20 mg/kg twice a day for 15 days after the surgery. Control rats received vehicle only. Three to eight rats are tested in each group. Restoration of whisker movement after the treatment with compounds of the present invention is recorded at different post-operative time points daily, up to two weeks, and is shown in FIG. 1.

Structure (SMILES) | M17 Cell Response [1] | Rat Hippocampal Cell Response [2] | also measured
CCC(C)(C)C(=O)C(=O)N1CCC[C@H]1c1nc(C(=O)NCc2cccnc2)cs1 [Compound 14] | 112% of DMSO-treated control and 108% of DMSO-treated control | 116% of DMSO-treated control | 
O=C(C(=O)N1CCCC1c1nnc([C@@H]2CCCN2C(=O)C(=O)c2cccs2)o1)c1cccs1 (some centres unmarked) [Compound 48] |  | 113% of DMSO-treated control | 
O=S(=O)(Cc1ccccc1)N1CCCC1c1nnc([C@@H]2CCCN2S(=O)(=O)Cc2ccccc2)o1 (some centres unmarked) [Compound 54] |  | 113% of DMSO-treated control | 
CCC(C)(C)C(=O)C(=O)N1CCC[C@@H]1c1nnc([C@H]2CCCN2C(=O)C(=O)C(C)(C)CC)o1 [Compound 64] |  | 122% of DMSO-treated control | 
CCC(C)(C)C(=O)C(=O)N1CCC[C@H]1c1nnc(C2CCCN2)o1 (some centres unmarked) [Compound 55] |  | 116% of DMSO-treated control | 
CCC(C)(C)C(=O)C(=O)N1CCCC[C@H]1c1nnc(CCc2cc(OC)c(OC)c(OC)c2)o1 [Compound 39] | 112% of DMSO-treated control |  | 
CCC(C)(C)C(=O)C(=O)N1CCC[C@H]1C(=O)NNC(=O)CCc1cccnc1 [Compound 32] | 103% of DMSO-treated control |  | 
CCC(C)(C)C(=O)C(=O)N1CCC[C@H]1C(=O)NNC(=O)[C@@H]1CCCN1C(=O)C(=O)C(C)(C)CC [Compound 24] | 123% of DMSO-treated control | 119% of DMSO-treated control and 104% of DMSO-treated control and 108% of DMSO-treated control | DRG [3]: + and −
CCC(C)(C)C(=O)C(=O)N1CCC[C@H]1c1nnc(-c2cccnc2)o1 [Compound 60] |  | 114% of DMSO-treated control | 
CCC(C)(C)C(=O)C(=O)N1CSCC1c1nnc([C@@H]2CSCN2C(=O)C(=O)C(C)(C)CC)o1 (some centres unmarked) [Compound 58] |  | 142% of DMSO-treated control | 
O=C(OCc1cccnc1)c1ncoc1[C@@H]1CCCN1C(=O)OCc1ccccc1 [Compound 4] | 134% of DMSO-treated control and 111% of DMSO-treated control | 111% of DMSO-treated control and 123% of DMSO-treated control | DRG [3]: +
CCC(C)(C)C(=O)C(=O)N1CCC[C@H]1c1nc(CCc2cccnc2)no1 [Compound 31] | 111% of DMSO-treated control | 124% of DMSO-treated control | DRG [3]: + and −
COc1cc(C(=O)C(=O)N2CCCC2c2nnc([C@@H]3CCCN3C(=O)C(=O)c3cc(OC)c(OC)c(OC)c3)o2)cc(OC)c1OC (some centres unmarked) [Compound 56] |  | 118% of DMSO-treated control and 116% of DMSO-treated control | 
CCC(C)(C)C(=O)C(=O)N1CCC[C@H]1c1nc(COc2cccnc2)cs1 [Compound 19] | 110% of DMSO-treated control | 109% of DMSO-treated control | 
CCC(C)(C)C(=O)C(=O)N1CCC[C@H]1C(=O)NNC(=O)c1cccnc1 [Compound 59] |  | 116% of DMSO-treated control | 
CCC(C)(C)C(=O)C(=O)N1CCC[C@H]1C(=O)NNC(=O)[C@@H]1CCCN1C(=O)OCc1ccccc1 [Compound 50] |  | 110% of DMSO-treated control | 
CCC(C)(C)C(=O)C(=O)N1CCC[C@H]1C(=O)NNC(=O)CCc1cc(OC)c(OC)c(OC)c1 [Compound 34] | 106% of DMSO-treated control | 113% of DMSO-treated control | 

Structure (SMILES) | M17 Cell Response [1] | Rat Hippocampal Cell Response [2] | also measured
COC(=O)C(=O)N1CCCC1c1nnc([C@@H]2CCCN2C(=O)C(=O)OC)o1 (some centres unmarked) [Compound 51] |  | 107% of DMSO-treated control | 
O=C(NCc1cccnc1)c1csc([C@@H]2CCCN2S(=O)(=O)Cc2ccccc2)n1 [Compound 13] | 102% of DMSO-treated control |  | DRG [3]: −
O=C(NCc1cccnc1)c1csc([C@@H]2CCCN2C(=O)OCc2ccccc2)n1 [Compound 11] |  |  | DRG [3]: +
CC(C)(C)C(=O)C(=O)N1CCCC1c1nnc([C@@H]2CCCN2C(=O)C(=O)C(C)(C)C)o1 (some centres unmarked) [Compound 62] |  | 120% of DMSO-treated control | 
CCC(C)(C)C(=O)C(=O)N1CCC[C@H]1c1nnc(CCc2cccnc2)o1 [Compound 33] | 104% of DMSO-treated control | 112% of DMSO-treated control | 
CCC(C)(C)C(=O)C(=O)N1CCCC[C@H]1C(=O)NNC(=O)CCc1cc(OC)c(OC)c(OC)c1 [Compound 37] | 111% of DMSO-treated control | 130% of DMSO-treated control | 
C=CC[C@@H]1/C=C(\C)C[C@H](C)C[C@H](OC)[C@H]2O[C@@](O)(C(=O)C(=O)N3CCCC[C@H]3C(=O)O[C@H](/C(C)=C/[C@@H]3CC[C@@H](O)[C@H](OC)C3)[C@H](C)[C@@H](O)CC1=O)[C@H](C)C[C@@H]2OC [FK506] |  |  | neurotrophic activity [4]: shows neurotrophic activity
O=C(NCc1cccnc1)c1ncoc1[C@@H]1CCCN1C(=O)OCc1ccccc1 [Compound 1] | 103% of DMSO-treated control |  | DRG [3]: −
CCC(C)(C)C(=O)C(=O)N1CCCCC1c1nnc([C@@H]2CCCCN2C(=O)C(=O)C(C)(C)CC)o1 (some centres unmarked) [Compound 44] | 118% of DMSO-treated control |  | 
CCC(C)(C)C(=O)C(=O)N1CCCC[C@H]1C(=O)NNC(=O)[C@@H]1CCCCN1C(=O)C(=O)C(C)(C)CC [Compound 25] | 111% of DMSO-treated control | 108% of DMSO-treated control | 
CCC(C)(C)C(=O)C(=O)N1CCCC1C(=O)NNC(=O)[C@H]1CCCN1C(=O)C(=O)C(C)(C)CC (some centres unmarked) [Compound 63] |  | 110% of DMSO-treated control | 
O=C(NCc1cccnc1)c1ncoc1[C@@H]1CCCN1S(=O)(=O)Cc1ccccc1 [Compound 3] |  |  | DRG [3]: −
CCC(C)(C)C(=O)C(=O)N1CCCC[C@H]1c1nnc(CCc2cccnc2)o1 [Compound 38] | 105% of DMSO-treated control | 129% of DMSO-treated control | 
CCC(C)(C)C(=O)C(=O)N1CC[C@H]1C(=O)NNC(=O)[C@@H]1CCN1C(=O)C(=O)C(C)(C)CC [Compound 26] |  | 133% of DMSO-treated control | 
CCC(C)(C)C(=O)C(=O)N1CCC[C@H]1c1nnc(CCc2cc(OC)c(OC)c(OC)c2)o1 [Compound 35] | 106% of DMSO-treated control | 126% of DMSO-treated control | 
CCC(C)(C)C(=O)C(=O)N1CCC1c1nnc([C@@H]2CCN2C(=O)C(=O)C(C)(C)CC)o1 (some centres unmarked) [Compound 52] |  | 110% of DMSO-treated control | 
CCC(C)(C)C(=O)C(=O)N1CCCC1c1nnc([C@@H]2CCCN2C(=O)C(=O)C(C)(C)CC)o1 (some centres unmarked) [Compound 30] | 112% of DMSO-treated control and 103% of DMSO-treated control | 161% of DMSO-treated control and 118% of DMSO-treated control and 130% of DMSO-treated control | DRG [3]: +, +, +, +, +; Restoration of whisker movement on the paralyzed side (facial nerve): restored more rapidly
